Experiments:
Type in all cases: in vivo
[1] = system: common ragweed (Ambrosia artemisiifolia L., AMBEL); test: Post-emerge greenhouse herbicide test, phytotoxicity rating; settings: 14 days after application
In short: (§1)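 Scores use a 0 (no damage) to 100 (complete kill) scale, taken 14 days after a foliar spray. Acetone solutions with 0.25% v/v non-ionic surfactant were applied by track sprayer at 187 l/ha and 63-1000 g ai/ha to bottom-watered 2-3 leaf plants.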

[2] = system: soybean (Glycine max L., var. Pella 86, SOY); test: Post-emerge greenhouse test, crop damage rating; settings: 14 days after application
In short: as §1

[3] = system: Johnsongrass (Sorghum halepense, SORHA); test: Pre-emerge greenhouse herbicide test, phytotoxicity rating; settings: 14 days after application, rating scale 0-100
In short: (§2)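 Visual 0–100 injury rating (100 = all plants dead) taken 14 days after treatment. Rates of 125–1000 g ai/ha in acetone, 187 l/ha, were sprayed onto soil one day post-sowing; pots were surface-watered to incorporate, then bottom-watered.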

[4] = system: sicklepod (Cassia obtusifolia, CASOB); test: as above; settings: 14 days after application, rating scale 0-100
In short: as §2

[5] = system: redroot pigweed (Amaranthus retroflexus, AMARE); test: as above; settings: 14 days after application, rating scale 0-100
In short: as §2

[6] = system: lambsquarters (Chenopodium album, CHEAL); test: as above; settings: 14 days after application, rating scale 0-100
In short: as §2

[7] = system: large crabgrass (Digitaria sanguinalis, DIGSA); test: as above; settings: 14 days after application, rating scale 0-100
In short: as §2

[8] = system: ivyleaf morningglory (Ipomoea hederacea, IPOHE); test: as above; settings: 14 days after application, rating scale 0-100
In short: as §2

[9] = system: common ragweed (Ambrosia artemisiifolia L., AMBEL); test: as above; settings: 14 days after application, rating scale 0-100
In short: as §2

[10] = system: green foxtail (Setaria viridis, SETVI); test: as above; settings: 14 days after application, rating scale 0-100
In short: as §2

[11] = system: velvetleaf (Abutilon theophrasti, ABUTH); test: as above; settings: 14 days after application, rating scale 0-100
In short: as §2

[12] = system: barnyardgrass (Echinochloa crusgalli, ECHCG); test: as above; settings: 14 days after application, rating scale 0-100
In short: as §2

[13] = system: Johnsongrass (Sorghum halepense, SORHA); test: Post-emerge greenhouse herbicide test, phytotoxicity rating; settings: 14 days after application
In short: as §1

[14] = system: redroot pigweed (Amaranthus retroflexus, AMARE); test: as above; settings: 14 days after application
In short: as §1

[15] = system: lambsquarters (Chenopodium album, CHEAL); test: as above; settings: 14 days after application
In short: as §1

[16] = system: large crabgrass (Digitaria sanguinalis, DIGSA); test: as above; settings: 14 days after application
In short: as §1

[17] = system: ivyleaf morningglory (Ipomoea hederacea, IPOHE); test: as above; settings: 14 days after application
In short: as §1

[18] = system: green foxtail (Setaria viridis, SETVI); test: as above; settings: 14 days after application
In short: as §1

[19] = system: velvetleaf (Abutilon theophrasti, ABUTH); test: as above; settings: 14 days after application
In short: as §1

[20] = system: barnyardgrass (Echinochloa crusgalli, ECHCG); test: as above; settings: 14 days after application
In short: as §1

[21] = system: soybean (Glycine max L., var. Pella 86, SOY); test: Pre-emerge greenhouse test, crop damage rating; settings: 14 days after application, rating scale 0-100
In short: as §2

[22] = system: field corn (Zea mays L., var. Dekalb 535, CORN); test: Post-emerge greenhouse test, crop damage rating; settings: 14 days after application
In short: as §1

[23] = system: upland rice (Oryza sp., var.Tebonnet, RICE); test: Post-emerge greenhouse test, crop damage rating; settings: 14 days after application
In short: as §1

[24] = system: field corn (Zea mays L., var. Dekalb 535, CORN); test: Pre-emerge greenhouse test, crop damage rating; settings: 14 days after application, rating scale 0-100
In short: as §2

[25] = system: upland rice (Oryza sp., var.Tebonnet, RICE); test: Pre-emerge greenhouse test, crop damage rating; settings: 14 days after application, rating scale 0-100
In short: as §2

For `Cn1nc(-c2cc(Oc3ncccc3[N+](=O)[O-])c(Cl)cc2F)c(Cl)c1C(F)(F)F` [Compound 1-1], the “AMBEL phytotoxicity rating (0-100)” value ([1]; 500 g al/ha) was 100, the “SOY crop damage rating (0-100)” value ([2]; 500 g al/ha) was 100 and the “phytotoxicity rating SORHA” value ([3]; 500 g ai/ha) was 70. For the same compound, the “phytotoxicity rating CASOB” value ([4]; 500 g ai/ha) was 20, the “phytotoxicity rating AMARE” value ([5]; 500 g ai/ha) was 100 and the “phytotoxicity rating CHEAL” value ([6]; 500 g ai/ha) was 100. For the same compound, the “phytotoxicity rating DIGSA” value ([7]; 500 g ai/ha) was 90, the “phytotoxicity rating IPOHE” value ([8]; 500 g ai/ha) was 10 and the “phytotoxicity rating AMBEL” value ([9]; 500 g ai/ha) was 50. The “phytotoxicity rating SETVI” value ([10]; 500 g ai/ha) was 100, the “phytotoxicity rating ABUTH” value ([11]; 500 g ai/ha) was 60 and the “phytotoxicity rating ECHCG” value ([12]; 500 g ai/ha) was 50. The “SORHA phytotoxicity rating (0-100)” value ([13]; 500 g al/ha) was 90, the “AMARE phytotoxicity rating (0-100)” value ([14]; 500 g al/ha) was 100 and the “CHEAL phytotoxicity rating (0-100)” value ([15]; 500 g al/ha) was 100. The “DIGSA phytotoxicity rating (0-100)” value ([16]; 500 g al/ha) was 95, the “IPOHE phytotoxicity rating (0-100)” value ([17]; 500 g al/ha) was 100 and the “SETVI phytotoxicity rating (0-100)” value ([18]; 500 g al/ha) was 100. The “ABUTH phytotoxicity rating (0-100)” value ([19]; 500 g al/ha) was 100, the “ECHCG phytotoxicity rating (0-100)” value ([20]; 500 g al/ha) was 100 and the “crop damage rating SOY” value ([21]; 500 g ai/ha) was 10. For the same compound, the “CORN crop damage rating (0-100)” value ([22]; 500 g al/ha) was 60, the “RICE crop damage rating (0-100)” value ([23]; 500 g al/ha) was 90 and the “crop damage rating CORN” value ([24]; 500 g ai/ha) was 20. The “crop damage rating RICE” value ([25]; 500 g ai/ha) was 20.

For `Cn1nc(-c2cc(Oc3ncccc3C(F)(F)F)c(Cl)cc2F)c(Cl)c1C(F)(F)F` [Compound 1-2], the “AMBEL phytotoxicity rating (0-100)” value ([1]; 63 g al/ha) was 30, the “AMBEL phytotoxicity rating (0-100)” value ([1]; 500 g al/ha) was 90 and the “SOY crop damage rating (0-100)” value ([2]; 63 g al/ha) was 10. The “SOY crop damage rating (0-100)” value ([2]; 500 g al/ha) was 50, the “phytotoxicity rating SORHA” value ([3]; 125 g ai/ha) was 30 and the “phytotoxicity rating SORHA” value ([3]; 500 g ai/ha) was 50. For the same compound, the “phytotoxicity rating CASOB” value ([4]; 125 g ai/ha) was 80, the “phytotoxicity rating CASOB” value ([4]; 500 g ai/ha) was 0 and the “phytotoxicity rating AMARE” value ([5]; 125 g ai/ha) was 80. The “phytotoxicity rating AMARE” value ([5]; 500 g ai/ha) was 100, the “phytotoxicity rating CHEAL” value ([6]; 125 g ai/ha) was 50 and the “phytotoxicity rating CHEAL” value ([6]; 500 g ai/ha) was 99. The “phytotoxicity rating DIGSA” value ([7]; 125 g ai/ha) was 40, the “phytotoxicity rating DIGSA” value ([7]; 500 g ai/ha) was 95 and the “phytotoxicity rating IPOHE” value ([8]; 125 g ai/ha) was 0. For the same compound, the “phytotoxicity rating IPOHE” value ([8]; 500 g ai/ha) was 60, the “phytotoxicity rating AMBEL” value ([9]; 125 g ai/ha) was 80 and the “phytotoxicity rating AMBEL” value ([9]; 500 g ai/ha) was 80. For the same compound, the “phytotoxicity rating SETVI” value ([10]; 125 g ai/ha) was 90, the “phytotoxicity rating SETVI” value ([10]; 500 g ai/ha) was 99 and the “phytotoxicity rating ABUTH” value ([11]; 125 g ai/ha) was 0. For the same compound, the “phytotoxicity rating ABUTH” value ([11]; 500 g ai/ha) was 70, the “phytotoxicity rating ECHCG” value ([12]; 125 g ai/ha) was 20 and the “phytotoxicity rating ECHCG” value ([12]; 500 g ai/ha) was 50. For the same compound, the “SORHA phytotoxicity rating (0-100)” value ([13]; 63 g al/ha) was 20, the “SORHA phytotoxicity rating (0-100)” value ([13]; 500 g al/ha) was 40 and the “AMARE phytotoxicity rating (0-100)” value ([14]; 63 g al/ha) was 80. For the same compound, the “AMARE phytotoxicity rating (0-100)” value ([14]; 500 g al/ha) was 100, the “CHEAL phytotoxicity rating (0-100)” value ([15]; 63 g al/ha) was 70 and the “CHEAL phytotoxicity rating (0-100)” value ([15]; 500 g al/ha) was 100. The “DIGSA phytotoxicity rating (0-100)” value ([16]; 63 g al/ha) was 0, the “DIGSA phytotoxicity rating (0-100)” value ([16]; 500 g al/ha) was 50 and the “IPOHE phytotoxicity rating (0-100)” value ([17]; 63 g al/ha) was 30. For the same compound, the “IPOHE phytotoxicity rating (0-100)” value ([17]; 500 g al/ha) was 90, the “SETVI phytotoxicity rating (0-100)” value ([18]; 63 g al/ha) was 0 and the “SETVI phytotoxicity rating (0-100)” value ([18]; 500 g al/ha) was 40. For the same compound, the “ABUTH phytotoxicity rating (0-100)” value ([19]; 63 g al/ha) was 30, the “ABUTH phytotoxicity rating (0-100)” value ([19]; 500 g al/ha) was 100 and the “ECHCG phytotoxicity rating (0-100)” value ([20]; 63 g al/ha) was 0. The “ECHCG phytotoxicity rating (0-100)” value ([20]; 500 g al/ha) was 80, the “crop damage rating SOY” value ([21]; 125 g ai/ha) was 0 and the “crop damage rating SOY” value ([21]; 500 g ai/ha) was 10. The “CORN crop damage rating (0-100)” value ([22]; 63 g al/ha) was 0, the “CORN crop damage rating (0-100)” value ([22]; 500 g al/ha) was 10 and the “RICE crop damage rating (0-100)” value ([23]; 63 g al/ha) was 0. The “RICE crop damage rating (0-100)” value ([23]; 500 g al/ha) was 0, the “crop damage rating CORN” value ([24]; 125 g ai/ha) was 10 and the “crop damage rating CORN” value ([24]; 500 g ai/ha) was 90. The “crop damage rating RICE” value ([25]; 125 g ai/ha) was 30 and the “crop damage rating RICE” value ([25]; 500 g ai/ha) was 40.
